Data: patent publication US20120058172A1, “PLANT EXTRACTS FOR USE IN BRAIN MODULATION” (Intermed Discovery GmbH, priority 2006, published 2012)

System: mouse
Experiment: Marble burying test in the mouse
Type: in vivo
Settings: for Number of marbles covered by sawdust, mean ± s.e.m.: 15 mice per group
Text: More preferably, psychotropic activity can be tested using the Marble Burying Test in the mouse. The method, which detects anxiolytic/tranquillizing activity, follows that described by Broekkamp et al (Eur. J. Pharmacol., 126, 223-229, 1986). The principle of the test is that mice exposed to novel objects (marbles) will bury them in the sawdust floor covering. Anxiolytics decrease the number of marbles buried at non-sedative doses. For the experiment, mice (Male Rj: NMRI mice, weighing 20-30 g (max. range per experiment=5 g) at the beginning of the experiments, obtained from Elevage Janvier, 53940 Le Genest-Saint-Isle, France) are individually placed in transparent plastic cages (33×21×18 cm) with 5 cm of sawdust on the floor. 25 marbles are grouped in the centre of the cage. The cage is covered with an inverted plastic cage. Each test cage, together with the marbles, is impregnated with mouse odor before-hand by leaving 10 mice in the cage for 15 minutes. These mice then play no further role in the experiment. The mice are treated with test substance intraperitoneally (i.p.) 30 min before the test. Administration volume: 10 ml/kg, different dosages are tested (e.g. 2 or more dosages selected from 1, 3, 10, 30 and 100 mg/kg). The test substance is tested for solubility by cold stirring of the highest intended dose for 10 minutes in physiological saline. If soluble, physiological saline serves as vehicle. If insoluble, the test substance is homogenized and dispersed using a mortar and a pestle in 0.2% hydroxypropylmethylcellulose (HPMC) in physiological saline which then serves as the vehicle. Unless indicated otherwise, doses are prepared W/V (stock) and then V/V (serial dilutions) for test substances in solution, and by separate weighings (W/V) for test substances in suspension. Preparations are made freshly for each day of administration and precautions are taken to preserve the homogeneity of suspensions (if applicable) during the period of administration. As control, vehicle is administered. The number of marbles covered by sawdust (2/3 or more) is then counted at the end of a 30 minute test. 15 mice are studied per group. The test is performed blind. Each test substance is evaluated at 3 doses, administered i.p. 30 minutes before the test, and compared with a vehicle control group. Fluoxetine (32 mg/kg i.p.), administered under the same experimental conditions, is used as reference substance. Each experiment therefore includes 5 groups. Data are analyzed by comparing treated groups with vehicle control using unpaired Student's t tests, using commercial software (Microsoft Excel®, SAS® Version 8.2, GB Stat® Version 6.5). With this test system, with compounds of the formula I a decrease of the number of marbles buried and thus an anxiolytic effect can be found, preferably a significant effect (p<0.01) by an i.p. dosage in the range from 1 to 100 mg/kg.
The test is performed as described above.

SMILES | Number of marbles covered by sawdust, % change from control (Vehicle) (1 mg/kg i.p. −30 min) | Number of marbles covered by sawdust, mean ± s.e.m. (1 mg/kg i.p. −30 min) | Number of marbles covered by sawdust, % change from control (Vehicle) (3 mg/kg i.p. −30 min) | Number of marbles covered by sawdust, mean ± s.e.m. (3 mg/kg i.p. −30 min) | Number of marbles covered by sawdust, % change from control (Vehicle) (10 mg/kg i.p. −30 min) | Number of marbles covered by sawdust, mean ± s.e.m. (10 mg/kg i.p. −30 min) | Number of marbles covered by sawdust, % change from control (Vehicle) (32 mg/kg i.p. −30 min) | Number of marbles covered by sawdust, mean ± s.e.m. (32 mg/kg i.p. −30 min)
CC(C)C[C@@H](c1c(O)c(C=O)c(O)c(C=O)c1O)[C@@]1(C)CC[C@@H]2[C@@H]1[C@H]1[C@@H](CC[C@@]2(C)O)C1(C)C [Macrocarpale A, Macrocarpal A] | −5% | 15.7 ± 2.5 NS | −37% | 10.4 ± 2.3 NS | −53% | 7.7 ± 2.4 |  | 
CNCCC(Oc1ccc(C(F)(F)F)cc1)c1ccccc1 (centres unmarked) [FLUOXETINE, Fluoxetine, reference compound] |  |  |  |  |  |  | −100% | 0.0 ± 0.0
